In US4737517A, “Coumarin derivatives, pharmaceutical compositions containing the same, and the use thereof in the treatment of cancer” (FIDIA, S.p.A., priority 1983, dated 1988):

Legend:
[1] = Acute toxicity in the rat, oral; design: species or system rat (Sprague Dawley); conditions: in vivo, aqueous solution, up to 14 days, Litchfield and Wilcoxon
Procedure: Acute toxicity in the rat: groups of Sprague Dawley rats (male+female) are treated with graduated doses ranging from 0.125 g/kg of body weight to 10 g/kg of body weight of the above mentioned compounds in aqueous solution. The compounds are administered orally by intubation. Subsequent death may be immediate or may occur at any time up to 14 days after treatment.
The lethal dose 50 (LD50), that is, the dose which causes the death of 50% of the animals, is evaluated by the method of Litchfield and Wilcoxon (J. Pharmacol. Ex. Ther. 96, 99-113, 1949).

[2] = Acute toxicity in the mouse, oral; design: species or system mouse (Swiss); conditions: in vivo, aqueous solution, up to 14 days, Litchfield and Wilcoxon
Procedure: Acute toxicity in the mouse: groups of Swiss mice (male+female) are treated with graduated doses ranging from 0.125 g/kg to 5 g/kg of body weight with compounds 19 to 26. The compounds are administered orally by intubation and dissolved in water.
Subsequent death may be immediate or may occur at any time up to 14 days after treatment. The lethal dose 50 (LD50), that is, the dose which causes the death of 50% of the animals, is evaluated by the method of Litchfield and Wilcoxon (J. Pharmacol. Exp. Ther. 96, 99-113, 1949).

[3] = tested on: platelet hyper-aggregation induced by ADP; assay: Inhibition of ADP-induced platelet hyperaggregation in vitro (Born's method, aggregometer ELVI 840); assay type: cell-based, New Zealand rabbits; conditions: Oryctolagus cuniculus, 0.5 h, read-out: Inhibition of platelet hyper-aggregation induced by ADP
Procedure: Two separate centrifugations are effected (at 1000 rpm and at 6000 rpm), thus obtaining PRP ([…]) and PPP ([…]); the first is diluted with the second in order to obtain a platelet concentration of 300,000 per mm^3 (the count is effected in a Buerker apparatus). The compounds with a platelet antiaggregating activity of the present invention are added at the desired concentrations and incubated for 30 minutes at 37° C. with the aggregating agents. […] The various compounds represented by the numbers in the first column are identifiable by the numbers in the second column which refer to the examples described below in this specification.

[4] = tested on: 3 LL carcinoma cells (Lewis lung carcinoma); assay: Antitumor and antimetastatic activity in mice implanted with 3 LL Lewis lung carcinoma; assay type: in vivo, male mice of the C57B1/6J strain; conditions: oral; for No. of metastases: lungs, controls 21.8 ± 4.9; for No. of metastases / Primary Tumor Weight: 25th day after transplant; for Primary Tumor Weight: controls 9087 ± 386
Procedure: This activity is to be seen for instance after administration of doses of between 0.2 mg/kg and 10 mg/kg by the oral route, as illustrated by the following experiments.
1×10^5 3 LL carcinoma cells (Lewis lung carcinoma) are implanted by intramuscular injection in the paws of male mice of the C57B1/6J strain, weighing about 20-22 g. This operation is effected as described in the literature (Poggi A. et al. Cancer Res. 37, 272-277, 1977). The growth of the tumor is observed until the 25th day after transplant. On this day the animals are sacrificed and the primary tumor and lungs are removed in order to evaluate the growth of the primary tumor and the number of metastases. Pharmacological treatment by the oral route begins 2 days before transplant of the tumor and continues until sacrifice. The substances are dissolved in tap water and are changed every 24 hours.
Table 2 reports the results obtained with the two coumarin derivatives 19 and 26, previously mentioned in comparison to Warfarin, the well-known […] and antimetastatic compound, which is also a coumarin derivative. Warfarin's antimetastatic activity is widely documented both experimentally (Zacharski, L. R. et al. Cancer 44, 732-741, 1979 and Poggi, A. et al. Lancet i 163-164, 1978) and clinically (Zacharski, L. R. et al. J. Am. Med. Assoc. 245, 831-835, 1981). […] This effect is measured by the number of metastases (Zacharski, L. R. et al. Cancer 44, 732-741, 1979 and Poggi, A. et al. Lancet i 163-164, 1978).
(§1) The anticoagulating effect measured by the "thrombotest", the antitumor effect measured by the decrease in weight of the primary tumor and the antimetastatic effect shown as the number of metasteses present in the lungs, are reported in Table 2. While the antitumor and antimetastatic effects of Warfarin and the two new products according to the present invention are roughly equal, the strong anticoagulating effect is absent in the two new products of the invention. This is a completely unexpected result.

[5] = tested on: coagulation; assay: Thrombotest on capillary blood (anticoagulating effect); assay type: in vivo, mice (C57B1/6J); conditions: oral, controls 31.4 ± 1.7
Procedure: In a separate experiment, the anticoagulating activity of the compounds is verified on the same strain of mice at the same doses used for antimetastatic activity evaluation.
The effect on coagulation is measured by a thrombotest on capillary blood taken from the retroorbital cavity (Owren, P. A. et al. Lancet ii, 754-758, 1959).
as §1

[6] = tested on: 3 LL carcinoma cells (Lewis lung carcinoma); conditions: number of metastases; mice of the C57B1/6J strain; cited from earlier work
[7] = tested on: lung carcinoma; conditions: cited from earlier work
[8] = 1st adminis. 2.1 mg/kg, 2nd adminis. 0.5 mg/kg

Question: Which results are given for `C=CCc1c(O)c(CN2CCN(CCO)CC2)cc2c(C)cc(=O)oc12.ClOCl` [Compound 26, 4-methyl-6-[[4-(2-hydroxyethyl)-1-piperazinyl]methyl]-7-hydroxy-8-allylcumarin dichlorohydrate]?
Answer: LD50 at 336 h [1]: 3160 mg/kg; LD50 at 336 h [2]: 1950 mg/kg; inhibition at 100 µg/mL [3]: 23%; antitumoral and antimetastatic activity (in words) ([4]; in vivo on mice): antitumoral and antimetastatic activity; No. of metastases [4, 8]: 9.8 ± 2.8; Primary Tumor Weight [4, 8]: 6789 ± 349 mg; Thrombotest [5, 8]: 33.4 ± 1.2

Question: With `CC(=O)CC(c1ccccc1)c1c(O)c2ccccc2oc1=O` (stereo not shown) [Warfarin, reference compound] as the compound, how does the No. of metastases ([4]; doses not given) read?
Answer: Its No. of metastases is 12.4 ± 0.9.

Question: And the “Primary Tumor Weight” value ([4]; doses not given)?
Answer: Its value is 6274 ± 690 mg.

Question: What about the “antimetastatic effect on Lewis lung carcinoma (in words)” value [6] of the same compound?
Answer: The value was “has an antimetastatic effect”.

Question: And the Thrombotest ([5]; doses not given)?
Answer: Its Thrombotest is 180.

Question: What about the “anticoagulating activity in antitumor therapy (in words)” value ([7]; human, in vivo) of the same compound?
Answer: Its value is “strong anticoagulating activity”.

Question: And the “survival time in patients with lung carcinoma (in words)” value ([7]; in association with chemotherapy and radiation)?
Answer: Its value is “prolongs survival time”.
